Measurements taken from ChEMBL document CHEMBL4483862, “Open-source discovery of chemical leads for next-generation chemoprotective antimalarials” (2018).
pIC50: −log10 of the molar value.

System: Plasmodium berghei
Assay: Luciferase/luciferin-expressing antifolate-resistant parasites were used to infect a culture of HepG2 cells that were pre-incubated with compounds. Infected hepatocytes emit light due to the luciferase reaction. Assay results are presented as the percent inhibition of light emission compared to control. […]
Format: functional
Conditions: sporozoite; for IC90: read-out: LUCIFERASE INFECTION ASSAY - IC90
[1] = read-out: LUCIFERASE INFECTION ASSAY - IC50

Cc1ccc(C(=O)OCCOc2ccccc2)cc1NC(=O)c1ccco1
pIC50 (PBLUC_HILL_SLOPE 15.6, PBLUC_R_SQUARED 0.272, read-out: LUCIFERASE INFECTION ASSAY - IC50): 5.97 | IC90: 1.22 µM

CCCN1CCN(c2c3ccc(Cl)cc3nc3ccc(OC)cc23)CC1
pIC50 [1]: < 5.00 | IC90: > 10 µM

Clc1ccc(CSCc2cc(SCc3ccc(Cl)cc3Cl)nc(-c3ccccn3)n2)cc1
pIC50 (HEPG2TOX_HILL_SLOPE 1.3, HEPG2TOX_R_SQUARED 0.951, PBLUC_HILL_SLOPE 11.6, PBLUC_R_SQUARED 0.668, read-out: LUCIFERASE INFECTION ASSAY - IC50): 6.19 | IC90: 0.781 µM

O=C(Nc1nc2ccccn2c1C(=O)NC1CCCC1)c1ccc(F)cc1
pIC50 [1]: < 5.05 | IC90: > 9.01 µM

COc1cc(NC(=O)COC(=O)c2c(C)nn(Cc3ccc(Cl)cc3Cl)c2Cl)c(C)cc1[N+](=O)[O-]
pIC50 (FFLUC_HILL_SLOPE 1.94, FFLUC_R_SQUARED 0.846, read-out: LUCIFERASE INFECTION ASSAY - IC50): < 5.00 | IC90: > 10 µM

Cc1ccc(-n2c(SCC(=O)N3c4ccc(S(N)(=O)=O)cc4CC3C)nc3ccccc32)cc1 (stereo not given)
pIC50 (FFLUC_HILL_SLOPE 2.97, FFLUC_R_SQUARED 0.377, PBLUC_HILL_SLOPE 1.55, PBLUC_R_SQUARED 0.53, read-out: LUCIFERASE INFECTION ASSAY - IC50): 5.27 | IC90: > 10 µM

O=C(CN(Cc1ccco1)S(=O)(=O)c1ccccc1F)Nc1ccc(SC(F)F)cc1
pIC50 (PBLUC_HILL_SLOPE 1.6, PBLUC_R_SQUARED 0.718, read-out: LUCIFERASE INFECTION ASSAY - IC50): 5.46 | IC90: > 10 µM

N#Cc1nc(-c2ccccc2)nc2[nH]c(-c3ccccc3)c(C#N)c12
pIC50 (FFLUC_HILL_SLOPE 4.02, FFLUC_R_SQUARED 0.58, HEPG2TOX_HILL_SLOPE 1.18, HEPG2TOX_R_SQUARED 0.976, PBLUC_HILL_SLOPE 16.6, PBLUC_R_SQUARED 0.228, read-out: LUCIFERASE INFECTION ASSAY - IC50): 5.07 | IC90: 9.81 µM

CCOC(=O)c1c(-c2csc(Nc3ccccn3)n2)c(C)n(CC)c1C
pIC50 (PBLUC_HILL_SLOPE 7.74, 2.96, PBLUC_R_SQUARED 0.584, 0.552, read-out: LUCIFERASE INFECTION ASSAY - IC50): 5.03 | IC90: > 10 µM

CCC1=C(C(=O)OC)C(c2c(F)cccc2F)NC(=S)N1c1ccc2c(c1)OCCO2 (stereo not given)
pIC50 (PBLUC_HILL_SLOPE 2.5, PBLUC_R_SQUARED 0.683, read-out: LUCIFERASE INFECTION ASSAY - IC50): 5.16 | IC90: > 10 µM

O=C(O)Cc1csc(-c2cc(Br)cs2)n1
pIC50 [1]: < 5.00 | IC90: > 10 µM

N#CC(C#N)=Cc1c(-c2ccc(Cl)cc2)[nH]c2ccccc12
pIC50 (HEPG2TOX_HILL_SLOPE 0.752, HEPG2TOX_R_SQUARED 0.846, PBLUC_HILL_SLOPE 1.54, PBLUC_R_SQUARED 0.775, read-out: LUCIFERASE INFECTION ASSAY - IC50): 6.48 | IC90: 1.39 µM

CCOC(=O)c1cc(C#N)c(SCC(=O)Nc2ccccc2CC)nc1C
pIC50 [1]: < 5.00 | IC90: > 10 µM

CCCCNC(=O)c1c(NC(=O)c2ccccc2)nc2ccccn12
pIC50 (FFLUC_HILL_SLOPE 2.02, FFLUC_R_SQUARED 0.16, HEPG2TOX_HILL_SLOPE 0.796, HEPG2TOX_R_SQUARED 0.541, PBLUC_HILL_SLOPE 4.74, PBLUC_R_SQUARED 0.419, read-out: LUCIFERASE INFECTION ASSAY - IC50): 5.31 | IC90: 7.86 µM

Cc1ccc(Oc2ccc(S(=O)(=O)NCCN(C)C)cc2)cc1
pIC50 [1]: < 5.00 | IC90: > 10 µM

Fc1ccc(Oc2ccc(CNc3ncnc4nc[nH]c34)cn2)cc1
pIC50 (HEPG2TOX_HILL_SLOPE 3.2, HEPG2TOX_R_SQUARED 0.895, PBLUC_HILL_SLOPE 3.02, PBLUC_R_SQUARED 0.0659, read-out: LUCIFERASE INFECTION ASSAY - IC50): 5.23 | IC90: > 10 µM

COc1cccc(Nc2nccc3nc(-c4ccc(F)c(F)c4)[nH]c23)c1
pIC50 (HEPG2TOX_HILL_SLOPE 7.52, HEPG2TOX_R_SQUARED 0.793, PBLUC_HILL_SLOPE 2.32, PBLUC_R_SQUARED 0.606, read-out: LUCIFERASE INFECTION ASSAY - IC50): 5.39 | IC90: > 10 µM

O=C(O)c1c2c(nc3ccccc13)/C(=C/c1ccccc1Cl)CC2
pIC50 (PBLUC_HILL_SLOPE 0.525, PBLUC_R_SQUARED 0.706, read-out: LUCIFERASE INFECTION ASSAY - IC50): 6.24 | IC90: > 10 µM

Cc1ccc(S(=O)(=O)Nc2ccc(C(=O)Nc3ncccc3O)cc2)cc1C
pIC50 [1]: 5.13 | IC90: > 10 µM

Cc1cc(C)cc(C(=O)N(C)CC(=O)N2CCCC2)c1
pIC50 (FFLUC_HILL_SLOPE 0.201, FFLUC_R_SQUARED 0.0577, read-out: LUCIFERASE INFECTION ASSAY - IC50): < 5.00 | IC90: > 10 µM

Cc1cc(C(=O)COn2nnc3ccc(S(=O)(=O)N4CCOCC4)cc32)c(C)n1C
pIC50 [1]: < 5.00 | IC90: > 10 µM

Cc1cccc(N2CCN(CC(=O)c3ccc[nH]3)CC2)c1C
pIC50 [1]: < 5.00 | IC90: > 10 µM

CC(C)(C)c1ccc(-c2cnc3cnc(-c4cccnc4)cn23)cc1
pIC50 (PBLUC_HILL_SLOPE 7.55, PBLUC_R_SQUARED 0.755, read-out: LUCIFERASE INFECTION ASSAY - IC50): 5.42 | IC90: 5.11 µM

Cc1nn(-c2ccc(C(=O)N(Cc3ccccc3)Cc3nc(=O)c4ccccc4[nH]3)cc2)c(C)c1Cl
pIC50 (PBLUC_HILL_SLOPE 3.8, PBLUC_R_SQUARED 0.516, read-out: LUCIFERASE INFECTION ASSAY - IC50): 5.70 | IC90: 3.52 µM

COc1cc(C(=O)N/N=C2/C(=O)c3cccc4cccc2c34)cc(OC)c1OC
pIC50 (HEPG2TOX_HILL_SLOPE 1.4, HEPG2TOX_R_SQUARED 0.956, PBLUC_HILL_SLOPE 15.6, PBLUC_R_SQUARED 0.526, read-out: LUCIFERASE INFECTION ASSAY - IC50): 5.50 | IC90: 3.67 µM

CC(C)(C)NS(=O)(=O)c1cccc2c(N)cccc12
pIC50 (FFLUC_HILL_SLOPE 12.8, FFLUC_R_SQUARED 0.416, HEPG2TOX_HILL_SLOPE 12.3, HEPG2TOX_R_SQUARED 0.393, PBLUC_HILL_SLOPE 11.3, PBLUC_R_SQUARED 0.345, read-out: LUCIFERASE INFECTION ASSAY - IC50): 5.35 | IC90: 5.45 µM

COc1ccc(-c2cn(CC(=O)c3ccccc3)c3[n+]2-c2ccccc2CC3)cc1
pIC50 (HEPG2TOX_HILL_SLOPE 1.82, HEPG2TOX_R_SQUARED 0.932, PBLUC_HILL_SLOPE 2.71, PBLUC_R_SQUARED 0.363, read-out: LUCIFERASE INFECTION ASSAY - IC50): 5.32 | IC90: > 10 µM

Cc1ccc(C(=O)C(/C=N/N)=N/Nc2cc(Cl)cc(Cl)c2)cc1
pIC50 [1]: 5.04 | IC90: > 9.45 µM

O=c1c(Cl)c(Cl)cnn1-c1ccc(C(F)(F)F)cc1
pIC50 (FFLUC_HILL_SLOPE 1.51, FFLUC_R_SQUARED 0.59, HEPG2TOX_HILL_SLOPE 2.35, HEPG2TOX_R_SQUARED 0.929, PBLUC_HILL_SLOPE 2.87, PBLUC_R_SQUARED 0.611, read-out: LUCIFERASE INFECTION ASSAY - IC50): 5.63 | IC90: 5 µM

CCCN(C(=O)c1ccccc1CCc1ccccc1)c1nc(-c2ccc(Cl)cc2Cl)cs1
pIC50 [1]: < 5.00 | IC90: > 10 µM

O=C1C=CC(=O)N1c1cccc(N2C(=O)C=CC2=O)c1
pIC50 (PBLUC_HILL_SLOPE 9.05, PBLUC_R_SQUARED 0.121, read-out: LUCIFERASE INFECTION ASSAY - IC50): 4.95 | IC90: > 12.3 µM

CCOC(=O)c1c(-c2ccccc2)csc1NC(=O)C(C)OC(=O)c1ccccc1NS(=O)(=O)c1cccc(C(F)(F)F)c1 (stereo not given)
pIC50 [1]: < 5.00 | IC90: > 10 µM

CCN(Cc1ccc(OCc2ccccc2)cc1)C(=O)CN1CCc2cc(S(N)(=O)=O)ccc21
pIC50 (HEPG2TOX_HILL_SLOPE 0.311, HEPG2TOX_R_SQUARED 0.495, read-out: LUCIFERASE INFECTION ASSAY - IC50): < 5.00 | IC90: > 10 µM

CCCNC(=O)c1c(NC(=O)c2cc(F)ccc2F)nc2ccc(C)cn12
pIC50 (FFLUC_HILL_SLOPE 10.5, FFLUC_R_SQUARED 0.751, HEPG2TOX_HILL_SLOPE 1.41, HEPG2TOX_R_SQUARED 0.982, PBLUC_HILL_SLOPE 15, PBLUC_R_SQUARED 0.726, read-out: LUCIFERASE INFECTION ASSAY - IC50): 5.99 | IC90: 1.18 µM

COc1ccc(/C=C2\Oc3c(CN(C)C)c(O)cc(C)c3C2=O)cc1
pIC50 [1]: < 5.01 | IC90: > 9.72 µM

Cc1nn2c(NCCCn3ccnc3)cc(C(C)(C)C)nc2c1-c1ccccc1
pIC50 (FFLUC_HILL_SLOPE 16.6, FFLUC_R_SQUARED 0.48, HEPG2TOX_HILL_SLOPE 8.1, HEPG2TOX_R_SQUARED 0.76, PBLUC_HILL_SLOPE 15.5, PBLUC_R_SQUARED 0.267, read-out: LUCIFERASE INFECTION ASSAY - IC50): 5.58 | IC90: 3.07 µM

CCN(CC)c1ccc(C(=O)NNS(=O)(=O)c2c(F)cc(F)c(Cl)c2F)cc1
pIC50 (HEPG2TOX_HILL_SLOPE 9.38, HEPG2TOX_R_SQUARED 0.741, PBLUC_HILL_SLOPE 14.6, PBLUC_R_SQUARED 0.427, read-out: LUCIFERASE INFECTION ASSAY - IC50): 5.04 | IC90: > 10 µM

CC(C)(C)C(=O)Nc1ccccc1Sc1ccc([N+](=O)[O-])c(Sc2ccccc2NC(=O)C(C)(C)C)n1
pIC50 [1]: < 5.21 | IC90: > 6.13 µM

O=[N+]([O-])c1ccc(C(O)CNc2ccccc2S(=O)(=O)C(F)(F)F)cc1 (stereo not given)
pIC50 (HEPG2TOX_HILL_SLOPE 1.62, HEPG2TOX_R_SQUARED 0.763, PBLUC_HILL_SLOPE 5.41, PBLUC_R_SQUARED 0.533, read-out: LUCIFERASE INFECTION ASSAY - IC50): 6.09 | IC90: 1.21 µM

Cc1ccc(C(C)(C)CC(C)NCc2ccc(Cl)cc2)o1 (stereo not given)
pIC50 [1]: < 4.97 | IC90: > 10.8 µM
